PMC11448925, “Crystal structure of guanosine 5′-monophosphate synthetase from the thermophilic bacterium Thermus thermophilus HB8” (Acta Crystallographica Section F: Structural Biology …, 2024)

Experiments:
[1] = biological target: T1, TtGuaA (GMP synthetase, GuaA) (Thermus thermophilus, UniProt Q5SI28); test: X-ray crystallography, […] Å; type: binding; details: co-crystal with 10 mM XMP, pH 4.4, 20 °C; site between ATPPase and dimerization domains
T1 construct: full length, 503 residues, no tag; pET-11a in E. coli Rosetta(DE3); selenomethionyl crystals for the XMP complex; homodimer
T1 sequence (Q5SI28 1-503): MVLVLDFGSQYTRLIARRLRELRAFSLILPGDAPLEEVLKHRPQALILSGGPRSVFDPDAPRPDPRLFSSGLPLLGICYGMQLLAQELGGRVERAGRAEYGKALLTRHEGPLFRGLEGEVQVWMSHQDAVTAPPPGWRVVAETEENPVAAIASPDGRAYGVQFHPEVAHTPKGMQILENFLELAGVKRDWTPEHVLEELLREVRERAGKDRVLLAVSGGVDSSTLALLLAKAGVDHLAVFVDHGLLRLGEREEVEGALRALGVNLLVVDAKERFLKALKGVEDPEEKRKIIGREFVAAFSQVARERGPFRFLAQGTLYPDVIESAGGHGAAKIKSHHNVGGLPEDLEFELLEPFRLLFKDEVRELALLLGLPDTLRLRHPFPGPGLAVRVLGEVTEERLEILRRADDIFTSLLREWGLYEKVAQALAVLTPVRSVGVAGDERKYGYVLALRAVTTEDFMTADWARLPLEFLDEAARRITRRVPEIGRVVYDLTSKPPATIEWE

[2] = biological target: the molecule itself; test: SEC; size-exclusion chromatography of purified TtGuaA; conditions of the estimate not told

## O=c1[nH]c(=O)c2ncn([C@@H]3O[C@H](COP(=O)(O)O)[C@@H](O)[C@H]3O)c2[nH]1 [XMP]
[1]
  X-ray crystallography, 2.20 Å: In TtGuaA–XMP, one XMP molecule was bound to each monomer.

B1: Guanosine 5′-monophosphate (GMP) synthetase (GuaA) from Thermus thermophilus HB8 (enzyme, Thermus thermophilus (strain HB8))
chain: MVLVLDFGSQYTRLIARRLRELRAFSLILPGDAPLEEVLKHRPQALILSGGPRSVFDPDAPRPDPRLFSSGLPLLGICYGMQLLAQELGGRVERAGRAEYGKALLTRHEGPLFRGLEGEVQVWMSHQDAVTAPPPGWRVVAETEENPVAAIASPDGRAYGVQFHPEVAHTPKGMQILENFLELAGVKRDWTPEHVLEELLREVRERAGKDRVLLAVSGGVDSSTLALLLAKAGVDHLAVFVDHGLLRLGEREEVEGALRALGVNLLVVDAKERFLKALKGVEDPEEKRKIIGREFVAAFSQVARERGPFRFLAQGTLYPDVIESAGGHGAAKIKSHHNVGGLPEDLEFELLEPFRLLFKDEVRELALLLGLPDTLRLRHPFPGPGLAVRVLGEVTEERLEILRRADDIFTSLLREWGLYEKVAQALAVLTPVRSVGVAGDERKYGYVLALRAVTTEDFMTADWARLPLEFLDEAARRITRRVPEIGRVVYDLTSKPPATIEWE
notes: GMP synthetase (GuaA), Thermus thermophilus HB8, gene TTHA1552; The apo structure (2ywb) was solved with native protein; the XMP complex (2ywc) was solved from selenomethionyl protein crystals; No tag is stated for the construct; also called TtGuaA; TTHA1552
[2]
  stoichiometry N: 2
